Experimental data: the supplement of paper PMC10331698
± gives the standard deviation of the averaged measurements.

Key:
Test in all cases: level (log10 ratio to DMSO vehicle control); higher = higher biomarker level / cell amount than vehicle control
Conditions in all cases: in DMSO
Perfluoro-1-iodohexane = compound: FC(F)(F)C(F)(F)C(F)(F)C(F)(F)C(F)(F)C(F)(F)I [Perfluoro-1-iodohexane]
Experimental: (§1)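 BioMAP Diversity Plus panel of 12 human primary cell co-culture systems (3C, 4H, LPS, SAg, BT, BF4T, BE3C, CASM3C, HDF3CGF, KF3CT, MyoF, Mphg). Compounds were added 1 h before stimulation and left for 24 h (MyoF 48 h; BT 72 h for soluble read-outs or 6 d for IgG). Biomarkers were read by ELISA, cytotoxicity by SRB, PBMC viability and proliferation by Alamar Blue. Each well value was divided by the mean of 8 DMSO control wells on the same plate and log10 transformed; duplicate blinded samples were tested at 4 concentrations.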

[1] = compound: OCC(F)(F)OC(F)(F)C(F)(F)OC(F)(F)CO [1H,1H,8H,8H-Perfluoro-3,6-dioxaoctane-1,8-diol]
Experimental: as §1

[2] = compound: O=C(O)C(F)(F)C(F)(F)C(F)F [4H-Perfluorobutanoic acid]
Experimental: as §1

[3] = compound: FC(F)(F)C(F)(F)C(F)(F)C(F)(F)C(F)(F)CCI [1-Iodo-1H,1H,2H,2H-perfluoroheptane]
Experimental: as §1

[4] = compound: NCC(F)(F)C(F)(F)C(F)(F)C(F)(F)C(F)(F)C(F)(F)C(F)(F)F [1H,1H-Perfluorooctylamine]
Experimental: as §1

Perfluoropentanoic acid = compound: O=C(O)C(F)(F)C(F)(F)C(F)(F)C(F)(F)F [Perfluoropentanoic acid]
Experimental: as §1

[5] = compound: C=C(C)C(=O)OCCC(F)(F)C(F)(F)C(F)(F)C(F)(F)C(F)(C(F)(F)F)C(F)(F)F [(Perfluoro-5-methylhexyl)ethyl 2-methylprop-2-enoate]
Experimental: as §1

Test System	level (log10) (Perfluoro-1-iodohexane; 6700 nM)	level (log10) (Perfluoro-1-iodohexane; 20000 nM)	level (log10) (Perfluoro-1-iodohexane; 60000 nM)	level (log10) ([1]; 6700 nM)	level (log10) ([1]; 20000 nM)	level (log10) ([1]; 60000 nM)	level (log10) ([2]; 6700 nM)	level (log10) ([2]; 20000 nM)	level (log10) ([2]; 60000 nM)	level (log10) ([3]; 6700 nM)	level (log10) ([3]; 20000 nM)	level (log10) ([3]; 60000 nM)	level (log10) ([4]; 6700 nM)	level (log10) ([4]; 20000 nM)	level (log10) ([4]; 60000 nM)	level (log10) (Perfluoropentanoic acid; 6700 nM)	level (log10) (Perfluoropentanoic acid; 20000 nM)	level (log10) (Perfluoropentanoic acid; 60000 nM)	level (log10) ([5]; 6700 nM)	level (log10) ([5]; 20000 nM)
3C:CXCL8/IL-8	-0.014 ± 0.064	-0.01 ± 0.065	0.0365 ± 0.079	0.013 ± 0.014	0.014 ± 0.04	0.021 ± 0.081	-0.0015 ± 0.054	0.009 ± 0.0071	0.0395 ± 0.042	0.011 ± 0.0085	0.0065 ± 0.016	0.051 ± 0.017	-0.02 ± 0.0085	-0.0125 ± 0.00071	0.0085 ± 0.046	-0.0065 ± 0.0092	-0.005 ± 0.027	0.03 ± 0.079	0.0105 ± 0.03	0.054 ± 0.086
4H:CCL26/Eotaxin-3	0.014 ± 0.013	0.016 ± 0.017	0.016 ± 0.021	0.0015 ± 0.0021	0.0015 ± 0.0092	-0.0035 ± 0.00071	-0.0165 ± 0.012	-0.008 ± 0.011	0.008 ± 0.0085	0.007 ± 0.017	0 ± 0.014	-0.009	0.0225 ± 0.022	0.008 ± 0.0014	0.028 ± 0.023	0.0015 ± 0.0035	-0.0185 ± 0.022	0.004 ± 0.05	0.042 ± 0.058	0.039 ± 0.02
4H:SRB	-0.0065 ± 0.011	-0.008 ± 0.0042	-0.0105 ± 0.0035	-0.014 ± 0.0099	-0.0195 ± 0.015	-0.047 ± 0.0071	-0.0085 ± 0.0092	-0.003 ± 0.0071	0.0055 ± 0.0035	-0.004 ± 0.0057	-0.01 ± 0.0057	-0.008 ± 0.013	-0.003 ± 0.0042	0.0005 ± 0.011	0.003 ± 0.042	-0.0125 ± 0.00071	-0.0065 ± 0.016	-0.0025 ± 0.021	0.002 ± 0.013	-0.0025 ± 0.019
LPS:sPGE2	0.0235 ± 0.0092	0.0015 ± 0.00071	-0.038 ± 0.018	-0.0235 ± 0.019	-0.023 ± 0.045	-0.0195 ± 0.00071	0.0025 ± 0.054	-0.111 ± 0.054	-0.052 ± 0.013	-0.01 ± 0.042	-0.0395 ± 0.023	-0.018 ± 0.0085	-0.076 ± 0.025	-0.059 ± 0.031	-0.036 ± 0.013	-0.008 ± 0.11	-0.018 ± 0.0028	0.017 ± 0.011	-0.038 ± 0.05	-0.016 ± 0.064
SAg:CD40	-0.019 ± 0.013	-0.0195 ± 0.018	0.012 ± 0.061	-0.003 ± 0.0057	0.0095 ± 0.013	0.004 ± 0.0042	0 ± 0.0028	-0.056 ± 0.045	-0.028 ± 0.044	0.0015 ± 0.0078	-0.0095 ± 0.0021	-0.011 ± 0.011	0.001 ± 0.02	-0.0115 ± 0.011	-0.002 ± 0.011	0.0105 ± 0.005	0.0025 ± 0.0064	-0.001 ± 0.025	0 ± 0.0071	-0.0275 ± 0.028
LPS:CD62E/E-Selectin	-0.0115 ± 0.0035	-0.0175 ± 0.011	0.015 ± 0.023	-0.0065 ± 0.0078	-0.0155 ± 0.015	0.003 ± 0.0057	-0.006 ± 0.013	0.002 ± 0.0028	0.0075 ± 0.011	0.0045 ± 0.012	0.004 ± 0.0042	-0.0005 ± 0.0064	-0.017 ± 0.03	-0.005 ± 0.033	0.008 ± 0.017	0.01 ± 0.0057	-0.004 ± 0.0071	0.015 ± 0.018	0.006 ± 0.0099	0.0095 ± 0.012
BF4T:PAI-I	-0.0095 ± 0.0035	-0.02 ± 0.0042	-0.006 ± 0.018	-0.005 ± 0.02	-0.015 ± 0.011	-0.001 ± 0.013	0.0025 ± 0.013	-0.01 ± 0.0042	0.0105 ± 0.035	0.012 ± 0.014	0.005 ± 0.0014	0.0135 ± 0.016	-0.004 ± 0.02	-0.008 ± 0.016	0.0115 ± 0.005	-0.003 ± 0.0014	-0.005 ± 0.0028	0.007 ± 0.011	-0.01 ± 0.018	-0.023 ± 0.0057
4H:CD106/VCAM-1	0.013 ± 0.03	0.01 ± 0.034	0.014 ± 0.068	0.0145 ± 0.012	-0.0105 ± 0.0021	-0.0025 ± 0.015	-0.003 ± 0.014	-0.0165 ± 0.011	0.0065 ± 0.011	0.006 ± 0.051	0 ± 0.028	-0.0205 ± 0.026	0 ± 0.023	-0.041 ± 0.027	-0.034 ± 0.0085	0.002 ± 0.038	0.0125 ± 0.0021	0.024 ± 0.013	-0.012 ± 0.016	-0.0005 ± 0.005
3C:SRB	-0.0035 ± 0.00071	-0.0155 ± 0.00071	-0.0155 ± 0.0021	-0.01 ± 0.0085	-0.0105 ± 0.0021	-0.0255 ± 0.0021	0.0015 ± 0.0064	-0.007 ± 0.016	-0.0075 ± 0.013	0.006 ± 0.013	-0.019 ± 0.0042	-0.0175 ± 0.013	0.0005 ± 0.0035	0.002 ± 0.0071	0.0045 ± 0.046	-0.0115 ± 0.013	0.001 ± 0.014	0.007 ± 0.018	-0.008 ± 0.0042	-0.0175 ± 0.0078
LPS:sTNF-alpha	0.0005 ± 0.022	-0.008 ± 0.016	0.0075 ± 0.029	-0.0235 ± 0.025	-0.0435 ± 0.032	-0.0335 ± 0.022	0.0095 ± 0.043	0.0095 ± 0.023	0.004 ± 0.031	0.003 ± 0.011	-0.0065 ± 0.04	-0.0135 ± 0.046	0.018 ± 0.011	0.0125 ± 0.029	-0.0015 ± 0.028	0.003 ± 0.021	0.01 ± 0.0071	0.021 ± 0.014	0.0265 ± 0.04	0.0345 ± 0.063
LPS:CD106/VCAM-1	-0.031 ± 0.0057	-0.0145 ± 0.018	-0.029 ± 0.0028	0.0185 ± 0.033	-0.02 ± 0.0042	-0.013 ± 0.033	-0.018 ± 0.0071	-0.0245 ± 0.011	-0.002 ± 0.025	-0.0045 ± 0.00071	-0.008 ± 0.0014	-0.0165 ± 0.0064	-0.006 ± 0.023	-0.015 ± 0.013	-0.0135 ± 0.0092	0.005 ± 0.013	0.004 ± 0.0057	0.0035 ± 0.023	0.0045 ± 0.016	-0.003 ± 0.035
BE3C:CXCL8/IL-8	0.011 ± 0.033	0.021 ± 0.028	0.052 ± 0.033	0.0075 ± 0.005	0.001 ± 0.041	-0.012 ± 0.045	0.015 ± 0.099	0.0165 ± 0.044	0.0695 ± 0.071	0.0285 ± 0.037	0.0605 ± 0.023	0.086 ± 0.024	-0.017 ± 0.023	-0.0075 ± 0.025	-0.005 ± 0.013	-0.023 ± 0.0042	-0.036 ± 0.017	-0.0085 ± 0.057	-0.0065 ± 0.0092	-0.008 ± 0.024
BT:sIL-2	0.0065 ± 0.052	-0.0005 ± 0.1	-0.0005 ± 0.098	0.002 ± 0.059	-0.0075 ± 0.035	0.033 ± 0.042	0.0065 ± 0.054	-0.0275 ± 0.14	-0.056 ± 0.017	-0.068 ± 0.0042	0.027 ± 0.047	-0.15 ± 0.073	0.034 ± 0.079	0.022 ± 0.0085	-0.0465 ± 0.053	-0.0115 ± 0.17	0.0385 ± 0.00071	0.0385 ± 0.0078	-0.0185 ± 0.025	-0.0245 ± 0.039
BE3C:CXCL9/MIG	0.0085 ± 0.0035	-0.002 ± 0.0071	-0.0035 ± 0.018	0.0015 ± 0.0064	-0.0025 ± 0.0035	0.0035 ± 0.005	-0.0015 ± 0.011	0.0085 ± 0.022	0.0135 ± 0.0092	-0.001 ± 0.0014	-0.008 ± 0.0042	-0.008 ± 0.013	-0.0095 ± 0.011	0.0035 ± 0.022	0.0005 ± 0.0021	-0.0035 ± 0.0092	-0.012 ± 0.013	0.007 ± 0.018	0.009 ± 0.013	0.008 ± 0.0071
